Laboratory results as given in patent publication US20230158057A1, “COMPOSITIONS AND METHODS FOR THE TREATMENT OF PAIN” (Duke University, priority 2020, published 2023).

Assays:
[1] = tested on: LLC lung tumor nodules; assay: Lung metastases after intrafemoral LLC inoculation; type: in vivo, mouse; conditions: d17, 20 mg/kg i.p., vs vehicle or ZA
Source text: Visual and immunohistochemical analysis of lung metastases. Mice were deeply anesthetized with isoflurane and perfused intracardially with PBS, followed by 4% PFA. After the perfusion, lungs were removed from mice and post-fixed in the same fixative overnight. The samples were then dehydrated with a 30% sucrose solution, embedded in O.C.T. (Tissue Tek), and cryosectioned to produce 8 μm thick sections. For Hematoxylin and Eosin (H & E) staining, lung sections were rehydrated and stained with 0.1% Hematoxylin and 0.5% Eosin in sequence. After dehydration and clearance with HistoClear (Electron

[2] = tested on: IFN-β; assay: IFN-β ELISA on DRGs incubated ex vivo or cultured with ADU-S100; type: cell-based, mouse; conditions: for IFN-β levels in DRG lysate: ex vivo incubation 30 μM, 2 h
Protocol: ELISA: Mouse high-sensitivity IFN-α ELISA kit (42115-1) and IFN-β ELISA kit (42410-1) were purchased from PBL Assay Science and performed on serum, DRG lysate, or cell culture medium according to the manufacturer's instructions. Serum was obtained from whole blood through cardiac puncture at the time of euthanasia, followed by incubation for 30 minutes at 35° C. to promote clotting. Subsequently, samples were centrifuged at 4° C. at 2,500 xg for 15 minutes, followed by careful isolation of serum (supernatant). For ELISA on cell culture medium, samples were first concentrated approximately 10-fold using Amicon centrifugal filters (Millipore Sigma, UFC8030). DRGs were lysed by mechanical homogenization in a pH 7.4 CHAPS lysis buffer (FivePhoton Biochemicals, CIB-1-7.4-60) supplemented with a protease inhibitor cocktail (Millipore Sigma, 11697498001) and phosphatase inhibitor cocktail (FivePhoton Biochemicals, PIC1). For DRG lysate, Pierce BCA (ThermoFisher, 23225) assays were performed according to the manufacturer's instructions to quantify protein concentration, and ELISA results are reported normalized to protein concentration (pg/mg DRG tissue). To measure IFN-β levels in cerebrospinal fluid (CSF) isolated by spinal catheter from NHPs, we utilized a cynomolgus IFN-β ELISA kit (PBL Assay Science, 46415-1), which was performed using 50 μl CSF according to the manufacturer's instructions. Standard curves were performed in all experiments and values interpolated using GraphPad Prism version.

[3] = tested on: DRG nociceptors; assay: Whole-mount DRG patch clamp from tumor-bearing mice ex vivo; type: cell-based, mouse; conditions: 30 μM, 2 h, DRGs isolated d11
Source text: Whole-cell patch clamp recordings in whole-mount DRGs ex vivo. Four-week-old male C57BL/6 mice were used to establish the bone cancer pain model by intrafemoral inoculation of LLC, leading to nociceptor hyperexcitability in the ipsilateral L3-L5 DRGs which extend afferent nerve fibers to the tumor-bearing femur. […] 11d after tumor implantation, mice were euthanized followed by careful isolation of L3-L5 DRGs, which were placed in oxygenated artificial cerebrospinal fluid. DRGs were lightly digested for 20 minutes using an enzymatic mixture consisting of 0.32 ml collagenase A (1 mg/mL) and Trypsin (0.25%). Intact DRGs were then incubated in ACSF oxygenated with 95% O2 and 5% CO2, supplemented with vehicle (PBS) or 30 μM DMXAA in PBS for 2 hours at 37° C. Following incubation, DRGs were transferred to a recording chamber, where neurons could be visualized using a 40× water-immersion objective on an Olympus BX51WI microscope. Patch pipettes were pulled from borosilicate capillaries (Chase Scientific Glass Inc.) and filled with a pipette solution containing (in mM): 126 potassium gluconate, 10 NaCl, 1 MgCl2, 10 EGTA, 2 Na-ATP, and 0.1 Mg-GTP, adjusted to pH 7.3 with KOH. The external solution was composed of (in mM): 140 NaCl, 5 KCl, 2 CaCl2, 1 MgCl2, 10 HEPES, 10 glucose, adjusted to pH 7.4 with NaOH. […] Data were recorded and analyzed using the pClamp10 (Axon Instruments) software.

[4] = tested on: tumor-bearing femora; assay: Microcomputed tomography of tumor-bearing femurs; type: in vivo, mouse
Protocol: Microcomputed tomography. Microcomputed tomography (MicroCT) analyses were performed on femurs from tumor inoculated mice or naïve mice using a VivaCT 80 scanner with the 55-kVp source (Scanco, Southeastern, Pa.) as previously described (Wang, C. et al. “NOTCH signaling in skeletal progenitors is critical for fracture repair.” The Journal of Clinical Investigation 126, 1471-1481 (2016); Cao, C. et al. “Increased Ca2+ signaling through CaV1.2 promotes bone formation and prevents estrogen deficiency-induced bone loss.” JCI Insight 2, (2017)). Quantification of microCT data was calculated for distal femurs of mice treated with vehicle or DMXAA. Parameters quantified included bone volume/total volume (BV/TV) and connectivity density (Conn.D) within a region of 100 slides and 200 slides proximal to the distal growth plate.

## Nc1ncnc2c1ncn2[C@@H]1O[C@@H]2COP(=O)([S-])O[C@@H]3[C@H](O)[C@@H](COP([O-])(=S)O[C@H]2[C@H]1O)O[C@H]3n1cnc2c(N)ncnc21.[Na+].[Na+] (stereo partly drawn) [ADU-S100, (2′-5′)-[P(R)]-5′-O-[(R)-hydroxymercaptophosphinyl]-P-thioadenylyl-adenosine cyclic dinucleotide]
[1]
  lung tumor nodules: fewer lung tumor nodules
[2]; cultured DRGs from STING-WT mice
  IFN-β in culture medium: increased IFN-α and IFN-β in the culture medium
[2]; ex vivo incubation
  increase in IFN-β in STING-KO and STING-cKO DRGs: abolished in STING-KO mice and largely abolished in STING-cKO mice
[2]; STINGfx/fx, Nav1.8-Cre mice
  IFN-β levels in DRG lysate: significant elevation of IFN-β in STINGfx/fx; Nav1.8-Cre DRG lysate, but this increase was significantly lower than that seen in WT mice
[2]; WT mice
  IFN-β levels in DRG lysate: IFN-β levels in DRG lysate were increased

## Cc1ccc2c(=O)c3cccc(CC(=O)O)c3oc2c1C [DMXAA, 2-(5,6-dimethyl-9-oxo-9H-xanthen-4-yl)acetic acid]
[3]
  current-evoked action potential firing: sharply reduced the cancer-induced increase in current-evoked action potential firing
  rheobase of nociceptors: markedly increased the rheobase of nociceptors
[4]; d11
  cortical bone volume/total volume (BV/TV): increased cortical bone volume/total volume (BV/TV)
  trabecular bone connectivity density (Conn.D): higher trabecular bone connectivity density (Conn.D)
[4]; d11 after tumor implantation
  trabecular bone loss and cortical bone lesions (3D reconstruction): less bone cancer-induced trabecular bone loss and fewer cortical bone lesions
